In patent publication US7439359B2, “Small molecule compositions for binding to hsp90” (Sloan-Kettering Institute for Cancer Research, priority 2000, dated 2008):
“Also recorded” adds a separate entry of the source.

How the values were obtained:
MDA-MB-468 [1] = assay: Growth inhibition, sulforhodamine B assay; format: cell-based, human; settings: Homo sapiens, MDA-MB-468, 72 hours, unit inferred
Source text: (§1) Protein Assays. […] Antiproliferative index. […] Tissue Culture IC50 Studies. […] Her2 degradation. Total Protein Assays. […] Binding studies. Solid phase competition assays.

MCF-7 [2] = assay: Growth inhibition, sulforhodamine B assay; format: cell-based, human; settings: Homo sapiens, MCF7, 72 hours, unit inferred
Source text: as §1

[3] = Safety in mice with MCF-7 xenografts; format: in vivo; settings: IP
Description: (§2) PU3 was tested for its safety and potency in MCF-7 xenografts. […] Mice with established tumors were treated with a single dose of PU3 at doses of 50, 100 and 500 mg/kg i.p. Control mice were treated with DMSO alone. Mice were sacrificed 12 hours post-treatment. For immunoblotting, tumor tissue was homogenized in 2% SDS lysis buffer (pH 7.4).

Hsp90alpha [4] = biological target: T1, Hsp90alpha (Homo sapiens, UniProt P07900); assay: Solid phase competition assay with GM-beads, Hsp90 alpha immunoblot; format: binding; parameters: purchased Stressgen SPP-770; settings: competition with immobilized GM; unit inferred; read-out: EC50 Hsp90 α
Description: A test was also designed which allows identification of compounds which interact differentially with Hsp90-alpha and Hsp90-beta. […] An Hsp90 protein preparation containing both the alpha and the beta form is incubated with the support in the presence or absence of a compound to be evaluated. […] After washing, the material bound to the support is eluted and the eluate is separated on an SDS/PAGE gel and visualized by immunoblotting with anti-Hsp90-alpha and anti-Hsp90-beta to determine the amount of material bound. Alternatively, if quantitative amounts of the Hsp90 protein preparation or known ratios of alpha to beta forms of Hsp90 are used in the first instance, the unbound material can be analyzed by a similar technique.
as §1

[5] = tested on: Her2, Raf1, Her3, estrogen receptor (ER), Rb, p85 (PI3K), tubulin and actin; assay: Western blot of signaling proteins in SKBr3 and MCF-7 cells (differential degradation); format: cell-based, human
Description: Cultures of SKBr3 and MCF-7 cells were treated with varying concentrations (0, 10, 50 100, or 250 μM) of PU3 for 24 hours. The cells were lysed and levels of Her2, Raf1, Her3, estrogen receptor (ER), p85 (PI3K), tubulin and actin were analyzed by western blotting. Reduction in the amount of those signaling proteins which depend on hsp90 for their function (Her2, Raf1, Her3 and ER) was observed. No effect was observed on PI3K, tubulin or actin, proteins which are involved in other signaling pathways.

Hsp90alpha [6] = biological target: T1, Hsp90alpha; assay: PU3-biotin on Sepharose-Streptavidin beads; format: binding; settings: immobilized PU3-biotin
Source text: (§3) PU3 was linked to Biotin through the middle OH in accordance with the synthetic scheme shown in FIGS. 16A and B. PU3-biotin was immobilized on Sepharose-Streptavidin beads.

Trap-1 = biological target: T2, Trap-1 (Homo sapiens, UniProt Q12931); assay: PU3-biotin on Sepharose-Streptavidin beads; format: binding; settings: immobilized PU3-biotin
T2 sequence (Q12931 60-704): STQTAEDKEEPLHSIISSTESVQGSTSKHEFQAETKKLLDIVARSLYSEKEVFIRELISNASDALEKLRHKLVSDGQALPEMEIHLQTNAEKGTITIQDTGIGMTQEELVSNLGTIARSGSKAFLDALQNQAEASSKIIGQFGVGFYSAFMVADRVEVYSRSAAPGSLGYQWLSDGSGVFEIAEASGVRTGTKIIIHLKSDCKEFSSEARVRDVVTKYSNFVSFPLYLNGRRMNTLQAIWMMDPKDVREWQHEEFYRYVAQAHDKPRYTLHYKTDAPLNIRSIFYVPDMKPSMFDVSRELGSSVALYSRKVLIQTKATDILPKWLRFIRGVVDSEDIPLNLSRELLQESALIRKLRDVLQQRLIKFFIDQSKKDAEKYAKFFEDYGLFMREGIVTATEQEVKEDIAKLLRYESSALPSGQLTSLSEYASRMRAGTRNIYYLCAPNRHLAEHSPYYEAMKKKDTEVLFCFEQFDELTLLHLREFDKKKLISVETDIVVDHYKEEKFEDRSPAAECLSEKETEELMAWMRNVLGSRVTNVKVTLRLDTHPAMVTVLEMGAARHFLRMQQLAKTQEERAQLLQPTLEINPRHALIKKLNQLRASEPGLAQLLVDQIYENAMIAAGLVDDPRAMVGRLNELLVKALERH
Source text: as §3

Hsp70 = Hsp70 levels in MCF-7 cells (Western blotting); format: cell-based, human
Her2 [7] = assay: Her2 total protein degradation in MCF-7 cells (immunoblot);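 also: Her2 levels judged by SDS-PAGE western blot of whole-cell lysates probed with anti-Her2 antibody, compared with DMSO vehicle-treated cells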
Hsp90 = Hsp90 levels in MCF-7 cells (Western blotting); format: cell-based, human
Description: (§4) To test the time course of degradation, MCF-7 cells were treated with 100 μM PU3. Aliquots of cells were recovered at 1.5, 3, 6, 12 and 24 hours, and the amount of Her2, Raf-1, Hsp90 and Trap-1 was evaluated.

PI3 kinase (p85) = PI3 kinase (p85) levels in MCF-7 xenograft tumor tissue (immunoblotting); format: in vivo, Mice; settings: single dose 50, 100 and 500 mg/kg i.p., 12 hours post-treatment
Description: as §2

Raf-1 [8] = assay: Raf-1 amount in MCF-7 cells, time course; format: cell-based, human; settings: MCF-7, 100 μM, 1.5-24 hours
Description: as §4

Trap1 = Trap1 levels in MCF-7 cells (Western blotting); format: cell-based, human; settings: MCF-7, 10-250 μM, 24 hours
Her2 [9] = assay: Her2 levels in MCF-7 xenograft tumor tissue (immunoblotting); format: in vivo, Mice; settings: single dose 50, 100 and 500 mg/kg i.p., 12 hours post-treatment
Description: as §2

MCF-7 cells = assay: Changes in cell morphology; format: cell-based, human; settings: MCF-7 cells exposed to drug
Source text: Drugs may also be assayed based upon observed very characteristic changes in cell morphology. […] The increase in size is mostly due to an abundance in cytoplasm. These morphological changes are characteristic of mature epithelial differentiation and reversal of transformation.

Raf-1 [10] = assay: Raf-1 degradation in SKBr3 cells (immunoblot); format: cell-based, human; settings: SKBr3, 24 hours, 10-250 μM
Description: PU4 degraded Her2 at concentrations greater than 50 μM and Raf-1 at a concentration of 250 μM.

estrogen receptor = assay: Estrogen receptor degradation in MCF-7 cells (immunoblot); format: cell-based, human; settings: MCF-7, 24 hours, 10-250 μM
MDA-MB-468 [11] = assay: Growth assay, cell number by coulter counter; format: cell-based, human; settings: MDA-MB-468, FIG. 14
Description: (§5) Cell cultures of MCF-7, SKBr3 and MDA-MB-468 cells were treated with PU3 at one of several concentrations or a DMSO control to test for the occurrence of antiproliferative effects. FIGS. 14A-C show the results of cell number as a function of time.

MCF-7 [12] = assay: Growth assay, cell number by coulter counter; format: cell-based, human; settings: MCF-7, FIG. 14
Description: as §5

SKBr3 = assay: Growth assay, cell number by coulter counter; format: cell-based, human; settings: SKBr3, FIG. 14
Description: as §5

[13] = SKBr3 and MCF-7, 10-250 μM, 24 hours
[14] = MCF-7, 100 μM, within the 24 hour period

Q: With `CCCCn1c(Cc2cc(OC)c(OC)c(OC)c2)nc2c(N)ncnc21` [PU3] as the compound, how does the IC50 (MDA-MB-468 [1]) read?
A: 61 µM

Q: And the IC50 (MCF-7 [2])?
A: 50 µM

Q: What about the “dose administered without significant signs of toxicity” value [3] of the same compound?
A: up to 500 mg/kg

Q: And the “amount of Her2, Raf1, Her3 and ER” value [5, 13]?
A: Reduction

Q: What about the “amount of PI3K, tubulin or actin” value [5, 13] of the same compound?
A: No effect

Q: And the “Her2 degradation and lower-molecular weight HER-2 band (Example 3 summary)” value ([5]; cell line not stated)?
A: rapid decrease in Her2 levels

Q: And the “Raf / Her3 degradation (Example 3 summary)” value ([5]; cell line not stated)?
A: less sensitive to PU3, but are degraded at higher concentrations

Q: What about the “interaction with Hsp90alpha” value (Hsp90alpha [6]) of the same compound?
A: interaction of PU3 with the Trap-1 and Hsp90alpha

Q: What about the “interaction with Trap-1” value (Trap-1) of the same compound?
A: interaction of PU3 with the Trap-1 and Hsp90alpha

Q: What about the “synthesis of Hsp70” value (Hsp70; [14]) of the same compound?
A: significant synthesis

Q: And the “cellular levels of Hsp70” value (Hsp70; MCF-7, 10-250 μM, 24 hours)?
A: increases the cellular levels of Hsp90 and Hsp70

Q: And the IC50 (Her2 [7]; Homo sapiens, MCF7, read-out: IC50 Her2/MCF-7)?
A: 55 µM

Q: And the Her2 lost (Her2 [7]; MCF-7, 100 μM, within 3 hours of administration)?
A: more than 50%

Q: What about the “synthesis of Hsp90” value (Hsp90; [14]) of the same compound?
A: significant synthesis

Q: What about the “cellular levels of Hsp90” value (Hsp90; MCF-7, 10-250 μM, 24 hours) of the same compound?
A: increases the cellular levels of Hsp90 and Hsp70

Q: What about the “PI3 kinase (p85) levels in tumor” value (PI3 kinase (p85)) of the same compound?
A: No change

Q: What about the “amount of Raf-1” value (Raf-1 [8]) of the same compound?
A: did not change significantly

Q: And the “Trap1 level / band recognized by anti-Trap-1 antibody” value (Trap1)?
A: induces a protein band that migrates more rapidly than Trap-1

Q: And the “Her2 levels in tumor” value (Her2 [9])?
A: reduction in Her2 levels

Q: What about the cell morphology (MCF-7 cells) of the same compound?
A: flatten, increase in size and have distinct cellular boundaries

Q: What about the “Raf-1 degradation” value (Raf-1 [10]) of the same compound?
A: only partial loss of Raf-1 at 250 μM

Q: And the “estrogen receptor degradation” value (estrogen receptor)?
A: partially degraded estrogen receptor at concentrations over 50 μM; also recorded: dose-dependent degradation

Q: What about the “cell number as a function of time” value (MDA-MB-468 [11]) of the same compound?
A: clearly inhibits growth

Q: And the “cell number as a function of time” value (MCF-7 [12])?
A: clearly inhibits growth

Q: What about the “cell number as a function of time” value (SKBr3) of the same compound?
A: clearly inhibits growth
